Entries after “also recorded” stand apart in the source; their conditions may differ.
How the values were obtained:
[1] = system: Wnt target genes BIRC5/Survivin and EphB2; assay: Quantitative RT-PCR of Wnt target genes in mouse glioma cell lines; type: cell-based
Protocol: FIG. 15. Expression of target genes post-ICG-001 treatment (0-10 μM) by RT-PCR using (A-C) mouse Survivin in GL261-IL13, GL261, and K-luc cells. (D) Survivin in PBT147 human glioma cells. (E, F) Luciferase reporter assay indicating downregulation of Survivin/BIRC5 in PBT017 and PBT030 cell lines.
FIG. 16 is a table showing the expression of the target genes survivin/BIRC5 post-ICG-001 treatment ([…]) as detected by RT-PCR and Luciferase Reporter Assay.
ICG-001 differentially affects the expression of the Wnt target genes BIRC5/Survivin and EphB2 in vitro. […] The effects of ICG-001 on Wnt/CBP/β-catenin signaling were further confirmed using a Survivin-luciferase reporter assay (FIG. 15). ICG-001's selective effects on the expression of Survivin and EphB2 may serve as indicators of ICG-001 on target tissue activity in vivo (FIG. 16) and a readout for pharmacokinetics/pharmacodynamics (PK/PD) as used previously in clinical trials with the second-generation CBP/β-catenin specific antagonist PRI-724 (Anthony et al. 2013).

KIF20A = assay: qRT-PCR of KIF20A in PBT147 and PBT030 cells; type: cell-based, human
Protocol: ICG-001 activity in vitro in human and mouse glioma cell lines. Initially, the effects of the specific CBP/β-catenin antagonist ICG-001 was tested in vitro as a single agent on human and mouse glioma cell lines (5 PBT human and 3 mouse glioma lines).

[2] = system: CAR T cells (HER2 and mock); assay: Viability and cell count of CAR T / mock T cells treated with ICG-001; type: cell-based; conditions: ICG001 0, 2.5, 5 uM for 24-72 h
Protocol: FIG. 27. T cells treated with ICG001 2.5 and 5 μM for 24 or 72 h. (A) CAR Ts mock and HER2 from one donor and mock CARs derived from two additional donors were plated on 6-well format plates and treated with ICG001 at concentrations 0-5 μM for 24 or 72 h. Cells were collected from each well, counted, and viability was determined. (B, C) NanoString analysis of T cells treated with ICG-001 to determine concentration-dependent metabolic changes. […] (E) Correlation of differential gene expression in all T cell lines combined at concentration of 2.5 and 5 μM.
FIG. 29 is a bar graph showing the results of studies where CAR T calls are treated with ICG001 for 24 hours according to some embodiments. To determine how treatment with ICG001 affects the T cells, the following method was employed. On day 1, CAR Ts HER 2 or Mock CARs derived from the same donor and additional 2 donor mock cells were plated on 6 well format plates and treated with ICG001 0 uM, 2.5 uM, 5 uM for 24-72 h. On day 5, cells were collected per well, counted, cell viability was determined [pellets were frozen]. […] Note: CAR T from 494 donor treated with ICG001 were used in cytotoxicity assay #19 in comparison with untreated 4949 CARs.

[3] = Orthotopic syngeneic murine hepatocellular carcinoma model (qRT-PCR, IHC); type: in vivo; conditions: IHC, minimally 10 fields counted
Text: (§1) CXCL9 and CXCL10, are produced mainly by BATF3 dendritic cells that are required for Teff trafficking. The CXCL9, CXCL10, CXCL11/CXCR3 signaling axis is critical for activated T-helper type 1 (Th1), cytotoxic T-cell (CTL), and natural killer (NK) cell recruitment immune cell recruitment in vivo. A similar effect resulting from ICG-001 is likely, such as increased CD8^+T-cell infiltration into brain tumors (FIG. 3B).

[4] = system: interferon-y regulated chemokines CXCL9-11 in the TME; assay: as above; type: in vivo; conditions: qRT-PCR, previously demonstrated
Text: as §1

[5] = target: β-catenin/CBP interaction (Homo sapiens, UniProt Q92793); conditions: cited from earlier work
Sequence of β-catenin/CBP interaction (Q92793 whole entry): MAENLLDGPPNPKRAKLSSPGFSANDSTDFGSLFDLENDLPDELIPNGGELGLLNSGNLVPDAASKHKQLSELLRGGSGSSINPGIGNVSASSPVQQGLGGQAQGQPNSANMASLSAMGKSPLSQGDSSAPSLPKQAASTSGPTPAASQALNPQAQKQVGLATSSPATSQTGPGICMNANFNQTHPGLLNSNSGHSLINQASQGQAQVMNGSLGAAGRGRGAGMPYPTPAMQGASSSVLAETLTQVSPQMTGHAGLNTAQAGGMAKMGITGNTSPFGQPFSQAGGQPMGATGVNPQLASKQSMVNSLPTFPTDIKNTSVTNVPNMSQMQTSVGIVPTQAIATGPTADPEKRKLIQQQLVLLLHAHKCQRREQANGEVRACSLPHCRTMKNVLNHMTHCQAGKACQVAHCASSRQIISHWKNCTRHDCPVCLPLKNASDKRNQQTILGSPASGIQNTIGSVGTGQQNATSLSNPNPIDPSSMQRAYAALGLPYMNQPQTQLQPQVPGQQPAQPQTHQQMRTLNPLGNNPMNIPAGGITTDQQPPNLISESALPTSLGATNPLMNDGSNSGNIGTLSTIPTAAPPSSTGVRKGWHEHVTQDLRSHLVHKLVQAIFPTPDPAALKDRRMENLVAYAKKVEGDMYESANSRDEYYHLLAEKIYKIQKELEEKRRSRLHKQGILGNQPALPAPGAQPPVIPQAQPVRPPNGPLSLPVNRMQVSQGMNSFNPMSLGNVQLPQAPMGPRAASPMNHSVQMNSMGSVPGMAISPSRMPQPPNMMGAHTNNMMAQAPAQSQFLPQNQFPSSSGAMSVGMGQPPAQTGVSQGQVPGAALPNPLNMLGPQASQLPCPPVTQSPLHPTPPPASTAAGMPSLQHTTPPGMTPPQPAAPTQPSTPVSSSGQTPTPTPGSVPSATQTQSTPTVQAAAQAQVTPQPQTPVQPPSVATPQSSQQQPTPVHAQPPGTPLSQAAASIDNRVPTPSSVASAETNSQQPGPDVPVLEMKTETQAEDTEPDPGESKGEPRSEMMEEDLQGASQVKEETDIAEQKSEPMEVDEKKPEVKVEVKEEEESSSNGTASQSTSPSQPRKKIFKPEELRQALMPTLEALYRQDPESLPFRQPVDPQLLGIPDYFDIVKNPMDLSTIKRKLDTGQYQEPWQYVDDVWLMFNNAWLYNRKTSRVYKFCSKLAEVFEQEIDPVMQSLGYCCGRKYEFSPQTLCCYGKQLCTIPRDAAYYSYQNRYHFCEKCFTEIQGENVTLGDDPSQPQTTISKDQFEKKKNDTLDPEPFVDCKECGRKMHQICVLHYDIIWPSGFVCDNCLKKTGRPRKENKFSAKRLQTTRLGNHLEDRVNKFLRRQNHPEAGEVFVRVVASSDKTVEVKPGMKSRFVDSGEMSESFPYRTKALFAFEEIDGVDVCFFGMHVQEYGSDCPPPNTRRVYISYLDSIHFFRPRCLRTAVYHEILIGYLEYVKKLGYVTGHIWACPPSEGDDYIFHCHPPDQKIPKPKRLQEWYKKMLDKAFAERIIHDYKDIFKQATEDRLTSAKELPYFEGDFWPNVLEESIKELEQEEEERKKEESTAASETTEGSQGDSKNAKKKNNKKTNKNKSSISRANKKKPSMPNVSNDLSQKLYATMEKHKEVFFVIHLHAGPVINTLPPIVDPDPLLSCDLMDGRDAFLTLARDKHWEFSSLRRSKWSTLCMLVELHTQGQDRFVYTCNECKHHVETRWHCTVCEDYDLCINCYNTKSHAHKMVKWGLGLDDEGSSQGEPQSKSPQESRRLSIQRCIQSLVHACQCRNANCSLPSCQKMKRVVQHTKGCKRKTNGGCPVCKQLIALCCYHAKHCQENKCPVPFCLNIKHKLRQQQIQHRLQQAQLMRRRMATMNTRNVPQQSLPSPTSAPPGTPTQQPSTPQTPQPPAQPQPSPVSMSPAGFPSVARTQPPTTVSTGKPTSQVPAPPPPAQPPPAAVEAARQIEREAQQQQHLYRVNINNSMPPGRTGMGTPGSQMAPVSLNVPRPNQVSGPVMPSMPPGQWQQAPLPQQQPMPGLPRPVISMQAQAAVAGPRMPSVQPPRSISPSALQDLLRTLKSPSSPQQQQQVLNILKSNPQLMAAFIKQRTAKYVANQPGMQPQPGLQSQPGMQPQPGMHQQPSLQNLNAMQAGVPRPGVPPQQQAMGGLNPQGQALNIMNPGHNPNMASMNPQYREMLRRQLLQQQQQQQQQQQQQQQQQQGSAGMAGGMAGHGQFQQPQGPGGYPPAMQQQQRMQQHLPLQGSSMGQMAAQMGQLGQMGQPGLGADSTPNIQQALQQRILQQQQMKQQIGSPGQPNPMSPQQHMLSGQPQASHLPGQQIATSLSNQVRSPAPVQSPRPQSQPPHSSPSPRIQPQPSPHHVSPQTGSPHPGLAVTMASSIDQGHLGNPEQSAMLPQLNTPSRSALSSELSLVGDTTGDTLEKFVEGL

[6] = system: normal somatic stem cell population; conditions: preclinical studies; cited from earlier work

For O=C1[C@H](Cc2ccc(O)cc2)N2C(=O)CCN(C(=O)NCc3ccccc3)[C@H]2CN1Cc1cccc2ccccc12 [ICG-001], the “expression of Wnt/p300/β-catenin target gene EphB2” value [1] was “upregulating”, the “expression of Wnt/CBP/β-catenin target gene BIRC5/Survivin” value ([1]; ICG-001 0-10 μM) was “selectively downregulated” and the KIF20A expression (KIF20A) was “decreased expression of KIF20A”. The “CAR T cell viability and proliferation” value [2] was “not toxic to T cells in vitro”, the “CAR T cell viability and proliferation” value ([2]; listed as ICG001) was “not affecting Car T cell viability and proliferation” and the “CD8+ T cell infiltration into the tumor microenvironment” value [3] was “increased CD8+ T cell infiltration”. The “expression of interferon-y regulated chemokines CXCL9-11 in the TME” value [4] was “significantly increased; also recorded: increased the expression”, the “blockade of β-catenin/CBP versus β-catenin/p300 interaction” value [5] was “selectively blocks the β-catenin/CBP interaction without interfering with the β-catenin/p300 interaction” and the therapy-induced toxicity [6] was “ameliorated therapy-induced toxicity”.
